Measurements published in patent US20250019377A1 (JACOBIO PHARMACEUTICALS CO., LTD, priority 2021, published 2025).
pIC50: −log10 of the molar value.

Experiments:
[1] = test system: p-ERK in AGS cells (K-Ras G12D); test: Phospho-ERK1/2(THR202/TYR204) HTRF assay, AGS; assay type: cell-based; settings: Homo sapiens, 2 h, 2 hours incubation
[2] = test system: AGS cells (K-Ras G12D); test: 2D cell growth inhibition assay, AGS; assay type: cell-based; settings: Homo sapiens, 144 h, 6 days, absolute IC50
[3] = test system: SW620 cells (K-Ras G12V); test: 2D cell growth inhibition assay, SW620; assay type: cell-based; settings: Homo sapiens, SW-620, 144 h, 6 days, absolute IC50
[4] = target: K-Ras WT (Homo sapiens, UniProt P01116); test: SOS1 catalyzed nucleotide exchange assay (GDP form K-Ras), K-Ras WT; settings: read-out: K-Ras WT GDP Biochemical Activity (IC50)
Sequence of K-Ras WT (P01116 1-169 isoform P01116-2): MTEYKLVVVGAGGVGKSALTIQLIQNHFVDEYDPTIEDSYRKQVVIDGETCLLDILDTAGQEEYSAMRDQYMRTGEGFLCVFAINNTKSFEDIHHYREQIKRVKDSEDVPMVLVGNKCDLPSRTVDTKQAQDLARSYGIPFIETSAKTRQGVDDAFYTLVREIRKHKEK

[5] = test system: p-ERK in SW620 cells (K-Ras G12V); test: Phospho-ERK1/2(THR202/TYR204) HTRF assay, SW620; assay type: cell-based; settings: Homo sapiens, SW-620, 2 h, 2 hours incubation
[6] = target: T1, K-Ras G12V (Homo sapiens, UniProt P01116, G12V); test: biochemical
T1 sequence (P01116 1-169 isoform P01116-2 G12V): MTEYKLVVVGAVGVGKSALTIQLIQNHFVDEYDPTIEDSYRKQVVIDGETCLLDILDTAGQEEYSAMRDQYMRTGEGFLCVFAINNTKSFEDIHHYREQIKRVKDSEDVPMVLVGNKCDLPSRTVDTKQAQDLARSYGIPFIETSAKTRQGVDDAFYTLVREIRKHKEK

[7] = target: T1, K-Ras G12V; test: SOS1 catalyzed nucleotide exchange assay (GDP form K-Ras), K-Ras G12V; settings: read-out: K-Ras G12V GDP Biochemical Activity (IC50)
[8] = test system: AsPC-1 cells (K-Ras G12D); test: 2D cell growth inhibition assay, AsPC-1; assay type: cell-based; settings: Homo sapiens, ASPC1, 144 h, AsPC-1, K-Ras G12D, 6 days, absolute IC50
[9] = target: K-Ras G12D (Homo sapiens, UniProt P01116, G12D); test: biochemical
Sequence of K-Ras G12D (P01116 1-169 isoform P01116-2 G12D): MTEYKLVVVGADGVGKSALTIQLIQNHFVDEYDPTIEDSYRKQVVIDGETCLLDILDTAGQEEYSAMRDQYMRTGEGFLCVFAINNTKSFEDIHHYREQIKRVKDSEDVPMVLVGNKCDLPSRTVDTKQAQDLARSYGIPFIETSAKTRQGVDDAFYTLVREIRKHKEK

| Compound | IC50 [1] [nM] | IC50 [2] [nM] | IC50 [3] [nM] | pIC50 [4] | IC50 [5] [nM] | pIC50 [6] | pIC50 [7] | IC50 [8] [nM] | pIC50 [9] |
| --- | --- | --- | --- | --- | --- | --- | --- | --- | --- |
| C#Cc1c(F)ccc2cc(O)cc(-c3c(Cl)cc4c(N5CCCOCC5)nc(OC[C@@]56CCCN5C[C@H](F)C6)nc4c3F)c12 [Compound 19, 4-(6-chloro-8-fluoro-2-(((2R,7aS)-2-fluorotetrahydro-1H-pyrrolizin-7a(5H)-yl)methoxy)-4-(1,4-oxazepan-4-yl)quinazolin-7-yl)-5-ethynyl-6-fluoronaphthalen-2-ol trifluoroacetic acid] | 47.9 | 5510 | 119 | 7.79 | 52.5 | 6.66 | 8.01 | 2370 | – |
| C#Cc1c(F)ccc2cc(O)cc(-c3ncc4c(N5CCOCCC5C)nc(OC[C@@]56CCCN5C[C@H](F)C6)nc4c3F)c12 (stereo partly drawn) [Compound 22, 5-ethynyl-6-fluoro-4-(8-fluoro-2-(((2R,7aS)-2-fluorotetrahydro-1H-pyrrolizin-7a(5H)-yl)methoxy)-4-(5-methyl-1,4-oxazepan-4-yl)pyrido[4,3-d]pyrimidin-7-yl)naphthalen-2-ol trifluoroacetic acid] | 70.7 | 175 | 64.3 | 8.39 | 13.2 | 5.84 | 8.49 | 782 | – |
| C#Cc1c(F)ccc2cc(O)cc(-c3ncc4c(N5CCOCC(N(C)C)C5)nc(OC[C@@]56CCCN5C[C@H](F)C6)nc4c3F)c12 (stereo partly drawn) [Compound 26, 4-(4-(6-(dimethylamino)-1,4-oxazepan-4-yl)-8-fluoro-2-(((2R,7aS)-2-fluorotetrahydro-1H-pyrrolizin-7a(5H)-yl)methoxy)pyrido[4,3-d]pyrimidin-7-yl)-5-ethynyl-6-fluoronaphthalen-2-ol] | – | – | – | 8.33 | – | 5.38 | 8.24 | – | – |
| C#Cc1c(F)ccc2cc(O)cc(-c3ncc4c(N5CC(F)COCC5C)nc(OC[C@@]56CCCN5C[C@H](F)C6)nc4c3F)c12 (stereo partly drawn) [Compound 31, 5-ethynyl-6-fluoro-4-(8-fluoro-4-(6-fluoro-3-methyl-1,4-oxazepan-4-yl)-2-(((2R,7aS)-2-fluorotetrahydro-1H-pyrrolizin-7a(5H)-yl)methoxy)pyrido[4,3-d]pyrimidin-7-yl)naphthalen-2-ol] | 3.62 | 5.92 | 22.6 | 8.58 | 12.8 | 7.31 | 8.61 | 60.9 | – |
| C#Cc1c(F)ccc2cc(OC(=O)[C@H](Cc3c[nH]c4ccccc34)NC(C)=O)cc(-c3ncc4c(N5CCCOCC5)nc(OC[C@@]56CCCN5C[C@H](F)C6)nc4c3F)c12 [Compound 44, 5-ethynyl-6-fluoro-4-(8-fluoro-2-(((2R,7aS)-2-fluorotetrahydro-1H-pyrrolizin-7a(5H)-yl)methoxy)-4-(1,4-oxazepan-4-yl)pyrido[4,3-d]pyrimidin-7-yl)naphthalen-2-yl acetyl-L-tryptophanate trifluoroacetic acid] | – | – | – | – | – | – | 9.06 | – | 8.84 |
| C#Cc1c(F)ccc2cc(OC(=O)/C=C/c3ccccc3)cc(-c3ncc4c(N5CCCOCC5)nc(OC[C@@]56CCCN5C[C@H](F)C6)nc4c3F)c12 [Compound 48, 5-ethynyl-6-fluoro-4-(8-fluoro-2-(((2R,7aS)-2-fluorotetrahydro-1H-pyrrolizin-7a(5H)-yl)methoxy)-4-(1,4-oxazepan-4-yl)pyrido[4,3-d]pyrimidin-7-yl)naphthalen-2-yl cinnamate trifluoroacetic acid] | – | – | – | – | – | – | 8.36 | – | 8.23 |
| C#Cc1c(F)ccc2cc(OC(=O)N(C)CCNC)cc(-c3ncc4c(N5CCCOCC5)nc(OC[C@@]56CCCN5C[C@H](F)C6)nc4c3F)c12 [Compound 54, 5-ethynyl-6-fluoro-4-(8-fluoro-2-(((2R,7aS)-2-fluorotetrahydro-1H-pyrrolizin-7a(5H)-yl)methoxy)-4-(1,4-oxazepan-4-yl)pyrido[4,3-d]pyrimidin-7-yl)naphthalen-2-yl methyl(2-(methylamino)ethyl)carbamate trifluoroacetic acid] | – | – | – | – | – | – | – | – | 9.00 |
| C#Cc1c(F)ccc2cc(OC(=O)C(c3ccccc3)N3CCCCC3)cc(-c3ncc4c(N5CCCOCC5)nc(OC[C@@]56CCCN5C[C@H](F)C6)nc4c3F)c12 (stereo partly drawn) [Compound 55, 5-ethynyl-6-fluoro-4-(8-fluoro-2-(((2R,7aS)-2-fluorotetrahydro-1H-pyrrolizin-7a(5H)-yl)methoxy)-4-(1,4-oxazepan-4-yl)pyrido[4,3-d]pyrimidin-7-yl)naphthalen-2-yl 2-phenyl-2-(piperidin-1-yl)acetate] | – | – | – | – | – | – | 8.67 | – | 8.87 |
| C#Cc1c(F)ccc2cc(OS(=O)(=O)c3ccc([N+](=O)[O-])cc3)cc(-c3ncc4c(N5CCCOCC5)nc(OC[C@@]56CCCN5C[C@H](F)C6)nc4c3F)c12 [Compound 56, 5-ethynyl-6-fluoro-4-(8-fluoro-2-(((2R,7aS)-2-fluorotetrahydro-1H-pyrrolizin-7a(5H)-yl)methoxy)-4-(1,4-oxazepan-4-yl)pyrido[4,3-d]pyrimidin-7-yl)naphthalen-2-yl 4-nitrobenzenesulfonate trifluoroacetic acid] | – | – | – | – | – | – | 8.41 | – | 8.33 |
| C#Cc1c(F)ccc2cc(OC(=O)NCC)cc(-c3ncc4c(N5CCCOCC5)nc(OC[C@@]56CCCN5C[C@H](F)C6)nc4c3F)c12 [Compound 57, 5-ethynyl-6-fluoro-4-(8-fluoro-2-(((2R,7aS)-2-fluorotetrahydro-1H-pyrrolizin-7a(5H)-yl)methoxy)-4-(1,4-oxazepan-4-yl)pyrido[4,3-d]pyrimidin-7-yl)naphthalen-2-yl ethylcarbamate trifluoroacetic acid] | – | – | – | – | – | – | 8.03 | – | 8.27 |

Results, then the compound that gave them:

| IC50 [1] [nM] | IC50 [2] [nM] | IC50 [3] [nM] | pIC50 [4] | IC50 [5] [nM] | pIC50 [6] | pIC50 [7] | IC50 [8] [nM] | pIC50 [9] | Compound |
| --- | --- | --- | --- | --- | --- | --- | --- | --- | --- |
| – | – | – | – | – | – | 8.87 | – | 9.06 | C#Cc1c(F)ccc2cc(OC(=O)C(c3ccccc3)N(C)C)cc(-c3ncc4c(N5CCCOCC5)nc(OC[C@@]56CCCN5C[C@H](F)C6)nc4c3F)c12 (stereo partly drawn) [Compound 59, 5-ethynyl-6-fluoro-4-(8-fluoro-2-(((2R,7aS)-2-fluorotetrahydro-1H-pyrrolizin-7a(5H)-yl)methoxy)-4-(1,4-oxazepan-4-yl)pyrido[4,3-d]pyrimidin-7-yl)naphthalen-2-yl 2-(dimethylamino)-2-phenylacetate trifluoroacetic acid] |
| – | – | – | – | – | – | 8.88 | – | 9.18 | C#Cc1c(F)ccc2cc(OC(=O)[C@@H](N)C(C)C)cc(-c3ncc4c(N5CCCOCC5)nc(OC[C@@]56CCCN5C[C@H](F)C6)nc4c3F)c12 [Compound 60, 5-ethynyl-6-fluoro-4-(8-fluoro-2-(((2R,7aS)-2-fluorotetrahydro-1H-pyrrolizin-7a(5H)-yl)methoxy)-4-(1,4-oxazepan-4-yl)pyrido[4,3-d]pyrimidin-7-yl)naphthalen-2-yl L-valinate trifluoroacetic acid] |
| – | – | – | – | – | – | 8.89 | – | 9.19 | C#Cc1c(F)ccc2cc(OC(=O)CN(C)C)cc(-c3ncc4c(N5CCCOCC5)nc(OC[C@@]56CCCN5C[C@H](F)C6)nc4c3F)c12 [Compound 61, 5-ethynyl-6-fluoro-4-(8-fluoro-2-(((2R,7aS)-2-fluorotetrahydro-1H-pyrrolizin-7a(5H)-yl)methoxy)-4-(1,4-oxazepan-4-yl)pyrido[4,3-d]pyrimidin-7-yl)naphthalen-2-yl dimethylglycinate trifluoroacetic acid] |
| – | – | – | 8.09 | – | 6.46 | 8.51 | – | – | C#Cc1c(F)ccc2cc(O)cc(-c3ncc4c(N5CCCOCC5)nc(OCC56CCCN5CC(N(C)C)C6)nc4c3F)c12 (stereo not shown) [Compound 83] |
| 517 | 8.51 | 525 | – | 803 | 6.81 | 8.60 | 2800 | – | C#Cc1c(F)ccc2cc(O)cc(-c3nc(O)c4c(N5CCCOCC5)nc(OC[C@@]56CCCN5C[C@H](F)C6)nc4c3F)c12 [Compound 123, 7-(8-ethynyl-7-fluoro-3-hydroxynaphthalen-1-yl)-8-fluoro-2-(((2R,7aS)-2-fluoro-tetrahydro-1H-pyrrolizin-7a(5H)-yl)methoxy)-4-(1,4-oxazepan-4-yl)pyrido[4,3-d] pyrimidin-5-ol] |
| 34.2 | 80.8 | 45.7 | 8.30 | 21.8 | 6.09 | 8.59 | 784 | – | C#Cc1c(F)ccc2cc(O)cc(-c3ncc4c(N5CCOC/C(=C/C)C5)nc(OC[C@@]56CCCN5C[C@H](F)C6)nc4c3F)c12 [Compound 124, 4-(4-((E)-6-ethylidene-1,4-oxazepan-4-yl)-8-fluoro-2-(((2R,7aS)-2-fluorotetrahydro-1H-pyrrolizin-7a(5H)-yl)methoxy)pyrido [4,3-d]pyrimidin-7-yl)-5-ethynyl-6-fluoro-naphthalen-2-ol] |
| 9.51 | 18.4 | 31.6 | 8.67 | 22.5 | 6.54 | 8.47 | 124 | – | C#Cc1c(F)ccc2cc(O)cc(-c3ncc4c(N5CCOCC(C(F)(F)F)C5)nc(OC[C@@]56CCCN5C[C@H](F)C6)nc4c3F)c12 (stereo partly drawn) [Compound 125, 5-ethynyl-6-fluoro-4-(8-fluoro-2-(((2R,7aS)-2-fluorotetrahydro-1H-pyrrolizin-7a(5H)-yl)methoxy)-4-(6-(trifluoromethyl)-1,4-oxazepan-4-yl)pyrido[4,3-d]pyrimidin-7-yl)naphthalen-2-ol] |
